In the NIST ThermoML archive (doi:10.1016/j.fluid.2011.03.005):

Legend:
[1] = Molar enthalpy of transition or fusion; details: Crystal; DSC
[2] = for mass density: 101.33 kPa, Liquid, Vibrating tube method

CCC[N+]1(C)CCCCC1.O=S(=O)([N-]S(=O)(=O)C(F)(F)F)C(F)(F)F
Details | Molar enthalpy of transition or fusion [kcal/mol]
[1] | 6.12

[2]
Details | mass density [kg/m3]
293.15 K | 1414.1
298.15 K | 1409.6
303.15 K | 1405.3
308.15 K | 1401
313.15 K | 1396.6
318.15 K | 1392.3
323.15 K | 1388
328.15 K | 1383.7
333.15 K | 1379.4
338.15 K | 1375.1
343.15 K | 1370.9
348.15 K | 1366.6
353.15 K | 1362.3
358.15 K | 1358.1
363.15 K | 1353.9

Details | Normal melting temperature [°C]
[2], Crystal, DTA | 12.6
